Patent publication US20120029190A1, “COMPOUNDS FOR TREATING DISORDERS MEDIATED BY METABOTROPIC GLUTAMATE RECEPTOR 5, AND METHODS OF USE THEREOF” (priority 2009, published 2012)

Molecular target: T1, human recombinant mGluR5 receptor (Homo sapiens, UniProt P41594)
T1 construct: expressed in transfected cells; expression induced with doxycycline
Experiment: mGluR5 in vitro functional assay (aequorin cell line, inhibition of glutamate EC80 response)
Format: cell-based
Details: Table 2; aequorin cell line expressing human mGluR5, reference agonist glutamate at EC80; obtained in duplicate; read-out: IC50
Outline: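 Doxycycline-induced (600 ng/mL, 18 h) aequorin cells loaded with coelenterazine h ≥4 h at room temperature; compound preincubated 3 min before glutamate at EC80. Luminescence recorded, normalized to digitonin or 20 mM ATP wells; % inhibition of EC80 response fitted by sigmoidal nonlinear regression.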

T1 sequence (P41594 21-1212): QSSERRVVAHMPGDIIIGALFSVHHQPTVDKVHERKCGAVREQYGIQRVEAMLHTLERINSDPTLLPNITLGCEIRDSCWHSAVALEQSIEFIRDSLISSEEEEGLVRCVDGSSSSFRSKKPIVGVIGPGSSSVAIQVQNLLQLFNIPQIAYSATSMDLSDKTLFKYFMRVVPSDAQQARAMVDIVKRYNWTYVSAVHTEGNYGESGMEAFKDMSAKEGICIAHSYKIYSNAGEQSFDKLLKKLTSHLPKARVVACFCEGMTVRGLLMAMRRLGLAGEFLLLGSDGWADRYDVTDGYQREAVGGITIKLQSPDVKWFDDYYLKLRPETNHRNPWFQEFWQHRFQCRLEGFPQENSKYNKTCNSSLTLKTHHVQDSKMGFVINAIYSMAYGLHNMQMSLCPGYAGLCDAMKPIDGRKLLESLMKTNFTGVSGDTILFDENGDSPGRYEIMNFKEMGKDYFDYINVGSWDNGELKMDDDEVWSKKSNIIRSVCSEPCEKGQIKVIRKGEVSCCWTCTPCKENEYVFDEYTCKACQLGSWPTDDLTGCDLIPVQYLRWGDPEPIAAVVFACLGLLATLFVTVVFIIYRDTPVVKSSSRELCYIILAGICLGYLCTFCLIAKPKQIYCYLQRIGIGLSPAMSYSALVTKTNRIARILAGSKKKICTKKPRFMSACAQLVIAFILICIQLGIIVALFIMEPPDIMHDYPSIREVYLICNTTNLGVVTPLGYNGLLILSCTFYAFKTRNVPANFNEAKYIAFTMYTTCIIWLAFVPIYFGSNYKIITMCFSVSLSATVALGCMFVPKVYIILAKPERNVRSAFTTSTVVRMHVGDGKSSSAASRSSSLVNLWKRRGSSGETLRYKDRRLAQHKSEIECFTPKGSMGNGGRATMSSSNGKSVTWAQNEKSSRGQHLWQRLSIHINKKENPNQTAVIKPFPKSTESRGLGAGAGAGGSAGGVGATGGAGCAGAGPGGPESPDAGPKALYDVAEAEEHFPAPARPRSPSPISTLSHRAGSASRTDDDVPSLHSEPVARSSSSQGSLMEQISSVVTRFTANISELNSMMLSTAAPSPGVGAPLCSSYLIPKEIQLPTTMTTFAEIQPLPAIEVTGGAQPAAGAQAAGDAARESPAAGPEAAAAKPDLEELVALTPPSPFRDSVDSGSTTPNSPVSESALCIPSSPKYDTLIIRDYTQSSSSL

`Clc1cncc(N2CCCc3oc(-c4ccccn4)nc3C2)c1` [Compound 198, 5-(5-Chloropyridin-3-yl)-2-(pyridin-2-yl)-5,6,7,8-tetrahydro-4H-oxazolo[4,5-c]azepine] and `Clc1cc(Cl)cc(N2CCCc3oc(-c4ccccn4)nc3C2)c1` [Compound 209, 5-(3,5-Dichlorophenyl)-2-(pyridin-2-yl)-5,6,7,8-tetrahydro-4H-oxazolo[4,5-c]azepine] cannot be ordered by IC50: less than 1000 nM for the first, less than 1000 nM for the second.

`Fc1cc(Cl)cc(N2CCCc3oc(-c4ccccn4)nc3C2)c1` [Compound 199, 5-(3-Chloro-5-fluorophenyl)-2-(pyridin-2-yl)-5,6,7,8-tetrahydro-4H-oxazolo[4,5-c]azepine] and `Fc1ccc(-c2nc3c(o2)CCCN(c2cc(F)cc(Cl)c2)C3)nc1` [Compound 205, 5-(3-Chloro-5-fluorophenyl)-2-(5-fluoropyridin-2-yl)-5,6,7,8-tetrahydro-4H-oxazolo[4,5-c]azepine] cannot be ordered by IC50: less than 1000 nM for the first, less than 1000 nM for the second.

`Fc1ccc(N2CCCc3oc(-c4ncccn4)nc3C2)cc1F` [Compound 200, 5-(3,4-Difluorophenyl)-2-(pyrimidin-2-yl)-5,6,7,8-tetrahydro-4H-oxazolo[4,5-c]azepine] and `Fc1ccc(N2CCCc3oc(-c4ncccn4)nc3C2)cc1Cl` [Compound 204, 5-(3-Chloro-4-fluorophenyl)-2-(pyrimidin-2-yl)-5,6,7,8-tetrahydro-4H-oxazolo[4,5-c]azepine] cannot be ordered by IC50: greater than 10000 nM for the first, greater than 10000 nM for the second.

`Clc1cncc(N2CCCc3oc(-c4ncccn4)nc3C2)c1` [Compound 201, 5-(5-Chloropyridin-3-yl)-2-(pyrimidin-2-yl)-5,6,7,8-tetrahydro-4H-oxazolo[4,5-c]azepine] and `Fc1cc(Cl)cc(N2CCCc3oc(-c4ncccn4)nc3C2)c1` [Compound 202, 5-(3-Chloro-5-fluorophenyl)-2-(pyrimidin-2-yl)-5,6,7,8-tetrahydro-4H-oxazolo[4,5-c]azepine] cannot be ordered by IC50: less than 10000 nM for the first, less than 1000 nM for the second.

First: N#Cc1cc(F)cc(N2CCCc3oc(-c4ncccn4)nc3C2)c1 [Compound 203, 3-Fluoro-5-(2-(pyrimidin-2-yl)-7,8-dihydro-4H-oxazolo[4,5-c]azepin-5(6H)-yl)benzonitrile]
Second: N#Cc1cc(F)cc(N2CCCc3oc(-c4cncnc4)nc3C2)c1 [Compound 206, 3-Fluoro-5-(2-(pyrimidin-5-yl)-7,8-dihydro-4H-oxazolo[4,5-c]azepin-5(6H)-yl)benzonitrile]
The IC50 of the first is lower: less than 1000 nM for the first, greater than 10000 nM for the second. The first is the more potent here.

Compared with `Cc1nc(-c2nc3c(o2)CCCN(c2ccccn2)C3)cs1` [Compound 207, 2-(2-Methylthiazol-4-yl)-5-(pyridin-2-yl)-5,6,7,8-tetrahydro-4H-oxazolo[4,5-c]azepine], `Cc1nc(N2CCCc3oc(-c4ccccn4)nc3C2)cs1` [Compound 208, 5-(2-Methylthiazol-4-yl)-2-(pyridin-2-yl)-5,6,7,8-tetrahydro-4H-oxazolo[4,5-c]azepine] is higher in IC50: less than 10000 nM for the first, greater than 10000 nM for the second.

`[2H]c1c(F)c([2H])c(N2CCCc3oc(-c4ccccn4)nc3C2)c([2H])c1C#N` [Compound 210, 2,4,6-d3-3-Fluoro-5-(2-(pyridin-2-yl)-7,8-dihydro-4H-oxazolo[4,5-c]azepin-5(6H)-yl)benzonitrile] and `N#Cc1cc(O)cc(N2CCCc3oc(-c4ccccn4)nc3C2)c1` [Compound 214, 3-Hydroxy-5-(2-(pyridin-2-yl)-7,8-dihydro-4H-oxazolo[4,5-c]azepin-5(6H)-yl)benzonitrile] cannot be ordered by IC50: less than 1000 nM for the first, less than 1000 nM for the second.

`Clc1ccccc1N1CCCc2oc(-c3ccccn3)nc2C1` [Compound 211, 5-(2-Chlorophenyl)-2-(pyridin-2-yl)-5,6,7,8-tetrahydro-4H-oxazolo[4,5-c]azepine] and `Clc1ccc(N2CCCc3oc(-c4ccccn4)nc3C2)cc1` [Compound 212, 5-(4-Chlorophenyl)-2-(pyridin-2-yl)-5,6,7,8-tetrahydro-4H-oxazolo[4,5-c]azepine] cannot be ordered by IC50: less than 1000 nM for the first, less than 1000 nM for the second.

Work on `COc1cc(C#N)cc(N2CCCc3oc(-c4ccccn4)nc3C2)c1` [Compound 213, 3-Methoxy-5-(2-(pyridin-2-yl)-7,8-dihydro-4H-oxazolo[4,5-c]azepin-5(6H)-yl)benzonitrile] yielded an IC50 of less than 1000 nM.
